≈ marks a conversion by molar mass, not a printed value.
Key:
[1] = biological target: Fibroblast growth factor receptor 1 (Homo sapiens, UniProt P11362)
[2] = Solubility in 20 mM buffered solution after shaking for 24 hr at 22 degree celsius at pH 6; type: physicochemical
[3] = biological target: Platelet-derived growth factor receptor beta (Homo sapiens, UniProt P09619)
[4] = Solubility in 20 mM buffered solution after shaking for 24 hr at 22 degree celsius at pH 2; type: physicochemical
[5] = In vitro cytotoxicity was determined; conditions: read-out: LD50 (the source's name)
[6] = biological target: Epidermal growth factor receptor (Homo sapiens, UniProt P00533)
Sequence of Epidermal growth factor receptor (P00533 whole entry): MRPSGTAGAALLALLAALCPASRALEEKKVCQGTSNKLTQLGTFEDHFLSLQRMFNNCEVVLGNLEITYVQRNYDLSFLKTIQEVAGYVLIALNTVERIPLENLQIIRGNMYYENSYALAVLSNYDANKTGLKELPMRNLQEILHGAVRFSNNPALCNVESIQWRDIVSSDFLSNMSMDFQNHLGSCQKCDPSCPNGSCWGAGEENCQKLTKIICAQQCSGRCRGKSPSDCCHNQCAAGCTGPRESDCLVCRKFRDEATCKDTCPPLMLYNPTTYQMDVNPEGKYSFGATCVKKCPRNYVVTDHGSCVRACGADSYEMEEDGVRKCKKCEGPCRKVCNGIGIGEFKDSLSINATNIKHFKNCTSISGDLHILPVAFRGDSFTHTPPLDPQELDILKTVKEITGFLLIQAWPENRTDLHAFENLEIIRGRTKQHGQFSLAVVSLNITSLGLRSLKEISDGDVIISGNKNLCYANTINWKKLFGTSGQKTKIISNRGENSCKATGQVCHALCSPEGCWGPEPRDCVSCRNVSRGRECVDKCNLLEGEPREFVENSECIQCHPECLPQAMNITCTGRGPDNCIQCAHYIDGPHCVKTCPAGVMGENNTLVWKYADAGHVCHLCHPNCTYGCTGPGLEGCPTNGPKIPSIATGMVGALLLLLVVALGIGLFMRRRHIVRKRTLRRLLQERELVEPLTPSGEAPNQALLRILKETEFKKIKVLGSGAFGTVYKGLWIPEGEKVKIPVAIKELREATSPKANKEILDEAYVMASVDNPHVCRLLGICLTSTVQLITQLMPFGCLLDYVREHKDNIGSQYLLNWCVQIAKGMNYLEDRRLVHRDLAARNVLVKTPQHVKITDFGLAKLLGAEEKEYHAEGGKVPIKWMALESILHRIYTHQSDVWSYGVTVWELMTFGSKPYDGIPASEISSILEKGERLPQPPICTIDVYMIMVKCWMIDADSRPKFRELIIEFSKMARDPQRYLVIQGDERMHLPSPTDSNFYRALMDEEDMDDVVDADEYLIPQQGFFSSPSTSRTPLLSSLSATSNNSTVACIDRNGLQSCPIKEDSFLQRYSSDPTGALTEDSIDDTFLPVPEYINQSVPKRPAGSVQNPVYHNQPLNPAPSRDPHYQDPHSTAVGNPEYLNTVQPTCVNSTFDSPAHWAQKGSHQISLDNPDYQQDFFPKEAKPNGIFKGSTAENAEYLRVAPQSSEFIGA

[7] = biological target: Vascular endothelial growth factor receptor 2 (Homo sapiens, UniProt P35968)
Sequence of Vascular endothelial growth factor receptor 2 (P35968 whole entry): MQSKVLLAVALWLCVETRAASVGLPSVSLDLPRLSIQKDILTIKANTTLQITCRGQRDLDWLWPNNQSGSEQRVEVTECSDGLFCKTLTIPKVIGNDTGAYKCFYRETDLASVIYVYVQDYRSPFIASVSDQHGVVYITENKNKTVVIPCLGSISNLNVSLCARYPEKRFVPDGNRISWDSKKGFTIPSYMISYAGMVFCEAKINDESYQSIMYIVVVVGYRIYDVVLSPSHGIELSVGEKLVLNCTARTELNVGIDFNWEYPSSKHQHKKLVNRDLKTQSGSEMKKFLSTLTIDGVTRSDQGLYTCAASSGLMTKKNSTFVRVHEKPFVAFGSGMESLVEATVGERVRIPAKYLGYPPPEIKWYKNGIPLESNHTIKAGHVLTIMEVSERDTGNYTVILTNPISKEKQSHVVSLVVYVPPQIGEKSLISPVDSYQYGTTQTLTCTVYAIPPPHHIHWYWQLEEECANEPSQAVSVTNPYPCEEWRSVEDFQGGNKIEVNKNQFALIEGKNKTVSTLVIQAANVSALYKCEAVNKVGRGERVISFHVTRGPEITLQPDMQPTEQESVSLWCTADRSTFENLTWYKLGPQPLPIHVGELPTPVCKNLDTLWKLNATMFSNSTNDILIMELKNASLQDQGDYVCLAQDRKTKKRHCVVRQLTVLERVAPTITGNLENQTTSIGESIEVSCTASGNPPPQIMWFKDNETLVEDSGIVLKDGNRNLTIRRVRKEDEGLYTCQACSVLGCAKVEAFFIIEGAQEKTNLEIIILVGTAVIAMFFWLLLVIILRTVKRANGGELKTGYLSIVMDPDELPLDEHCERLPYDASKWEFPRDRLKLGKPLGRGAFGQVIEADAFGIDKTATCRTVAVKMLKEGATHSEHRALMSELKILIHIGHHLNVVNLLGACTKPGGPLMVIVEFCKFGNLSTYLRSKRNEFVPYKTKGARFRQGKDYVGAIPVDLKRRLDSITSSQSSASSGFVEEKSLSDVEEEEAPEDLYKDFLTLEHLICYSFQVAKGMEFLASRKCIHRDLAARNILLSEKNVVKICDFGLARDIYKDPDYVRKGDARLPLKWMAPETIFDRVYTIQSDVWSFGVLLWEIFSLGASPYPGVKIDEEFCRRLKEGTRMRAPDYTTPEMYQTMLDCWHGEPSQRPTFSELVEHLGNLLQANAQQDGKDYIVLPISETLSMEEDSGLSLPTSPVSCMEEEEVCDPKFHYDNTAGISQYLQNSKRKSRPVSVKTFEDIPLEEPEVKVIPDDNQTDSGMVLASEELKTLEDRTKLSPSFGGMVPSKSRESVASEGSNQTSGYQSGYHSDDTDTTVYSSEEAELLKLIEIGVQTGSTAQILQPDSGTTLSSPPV

Sequence of Fibroblast growth factor receptor 1 (P11362 whole entry): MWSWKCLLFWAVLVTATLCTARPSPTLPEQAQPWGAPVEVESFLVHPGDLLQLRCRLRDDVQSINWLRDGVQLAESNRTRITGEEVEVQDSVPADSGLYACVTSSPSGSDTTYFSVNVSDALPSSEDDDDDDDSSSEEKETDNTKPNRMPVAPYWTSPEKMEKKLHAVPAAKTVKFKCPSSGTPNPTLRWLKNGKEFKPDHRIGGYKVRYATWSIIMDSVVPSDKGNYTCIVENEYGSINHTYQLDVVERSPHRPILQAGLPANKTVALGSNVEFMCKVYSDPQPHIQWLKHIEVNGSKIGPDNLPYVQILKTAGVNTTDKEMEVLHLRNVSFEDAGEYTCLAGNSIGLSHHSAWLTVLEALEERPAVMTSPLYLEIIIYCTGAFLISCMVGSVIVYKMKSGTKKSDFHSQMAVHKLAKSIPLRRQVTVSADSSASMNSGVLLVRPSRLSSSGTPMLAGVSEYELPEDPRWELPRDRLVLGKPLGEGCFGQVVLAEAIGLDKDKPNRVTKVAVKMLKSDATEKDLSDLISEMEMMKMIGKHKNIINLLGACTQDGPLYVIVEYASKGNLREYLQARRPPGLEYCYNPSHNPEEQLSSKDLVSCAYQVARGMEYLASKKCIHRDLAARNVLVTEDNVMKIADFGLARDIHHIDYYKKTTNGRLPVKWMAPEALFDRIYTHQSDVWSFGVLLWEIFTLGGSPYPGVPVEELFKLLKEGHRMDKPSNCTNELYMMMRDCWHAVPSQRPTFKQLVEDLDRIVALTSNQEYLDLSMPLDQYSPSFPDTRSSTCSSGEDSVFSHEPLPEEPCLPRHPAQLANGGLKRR
Sequence of Platelet-derived growth factor receptor beta (P09619 whole entry): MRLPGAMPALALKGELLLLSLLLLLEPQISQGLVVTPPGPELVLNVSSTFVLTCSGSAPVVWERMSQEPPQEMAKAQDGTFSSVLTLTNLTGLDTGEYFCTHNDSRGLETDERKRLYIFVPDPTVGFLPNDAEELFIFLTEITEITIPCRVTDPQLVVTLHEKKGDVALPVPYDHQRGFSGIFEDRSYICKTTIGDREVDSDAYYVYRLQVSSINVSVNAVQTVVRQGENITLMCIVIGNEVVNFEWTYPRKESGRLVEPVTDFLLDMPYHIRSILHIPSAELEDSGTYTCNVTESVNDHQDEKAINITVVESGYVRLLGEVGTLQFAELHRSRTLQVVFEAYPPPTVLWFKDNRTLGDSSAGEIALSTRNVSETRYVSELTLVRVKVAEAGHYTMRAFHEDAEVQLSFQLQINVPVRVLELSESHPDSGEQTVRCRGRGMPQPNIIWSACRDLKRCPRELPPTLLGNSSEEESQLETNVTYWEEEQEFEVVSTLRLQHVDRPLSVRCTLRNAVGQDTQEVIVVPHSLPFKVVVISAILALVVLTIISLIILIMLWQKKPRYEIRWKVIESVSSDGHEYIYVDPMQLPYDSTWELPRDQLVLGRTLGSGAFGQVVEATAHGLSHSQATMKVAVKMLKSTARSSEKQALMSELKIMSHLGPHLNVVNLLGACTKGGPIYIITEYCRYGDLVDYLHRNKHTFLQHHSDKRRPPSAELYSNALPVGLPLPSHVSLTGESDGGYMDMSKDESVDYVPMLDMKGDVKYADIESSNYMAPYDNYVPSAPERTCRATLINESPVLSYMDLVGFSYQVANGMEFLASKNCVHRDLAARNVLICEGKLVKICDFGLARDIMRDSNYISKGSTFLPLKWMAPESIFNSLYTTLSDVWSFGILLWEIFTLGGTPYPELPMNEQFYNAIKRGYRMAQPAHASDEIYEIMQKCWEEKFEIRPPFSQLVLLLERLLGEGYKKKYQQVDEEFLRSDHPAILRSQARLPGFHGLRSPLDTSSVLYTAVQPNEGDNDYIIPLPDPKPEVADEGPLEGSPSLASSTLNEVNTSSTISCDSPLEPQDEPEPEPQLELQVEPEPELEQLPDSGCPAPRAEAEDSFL

| Compound | IC50 [1] | solubility thermodynamic at 24 h [2] | IC50 [3] | solubility thermodynamic at 24 h [4] | CC50 [5] | IC50 [6] | IC50 [7] |
| --- | --- | --- | --- | --- | --- | --- | --- |
| Cc1[nH]c(/C=C2\C(=O)Nc3ccc(F)cc32)c(C)c1C(=O)NCCN1CCOCC1 | 2600 nM | 0.3 µg/mL (≈ 0.727 µM) | 2 nM | 2940 µg/mL (≈ 7140 µM) | > 50 µM | > 20 µM | 90 nM |
| CCN(CC)CCNC(=O)c1c(C)[nH]c(/C=C2\C(=O)Nc3ccc(F)cc32)c1C [SUNITINIB] |  | 364 µg/mL (≈ 913 µM) |  | 2580 µg/mL (≈ 6480 µM) | 48.9 µM |  |  |
| CCN(CC)CCNC(=O)c1c(C)[nH]c(/C=C2\C(=O)Nc3ccccc32)c1C | 880 nM | 511 µg/mL (≈ 1340 µM) | 17 nM | 3020 µg/mL (≈ 7940 µM) | > 50 µM | > 20 µM | 50 nM |
| Cc1cc(C)c(/C=C2\C(=O)Nc3ccccc32)[nH]1 [SEMAXANIB] |  | < 1 µg/mL |  | < 1 µg/mL | > 50 µM |  |  |
| CCN(CC)CCNC(=O)c1c(C)[nH]c(/C=C2\C(=O)Nc3ccc(Cl)cc32)c1C [SU-11652] | 170 nM | 186 µg/mL (≈ 448 µM) | 3 nM | 3260 µg/mL (≈ 7850 µM) | 15.6 µM | > 20 µM | 27 nM |
| Cc1[nH]c(/C=C2\C(=O)Nc3ccccc32)c(C)c1CCCN1CCN(C)CC1 | 4200 nM |  | 60 nM |  | > 50 µM | > 20 µM | 300 nM |
| Cc1[nH]c(/C=C2\C(=O)Nc3ccc(F)cc32)c(C)c1C(=O)NCCn1cncn1 | 17100 nM | 6 µg/mL (≈ 15.2 µM) | 10 nM | 2 µg/mL (≈ 5.07 µM) | > 50 µM | > 20 µM | 85 nM |
| Cc1[nH]c(/C=C2\C(=O)Nc3ccccc32)c(C)c1CCC(=O)O [ORANTINIB] |  |  |  | < 5 µg/mL | > 50 µM |  |  |
| CCN(CC)CCNC(=O)c1c(C)[nH]c(/C=C2\C(=O)Nc3ccc(Br)cc32)c1C |  | 101 µg/mL (≈ 220 µM) | 5 nM | 1300 µg/mL (≈ 2830 µM) | 16.3 µM | 10 µM | 32 nM |
| Cc1[nH]c(/C=C2\C(=O)Nc3ccc(F)cc32)c(C)c1C(=O)NCCN(C)C | 1600 nM | 75 µg/mL (≈ 202 µM) | 0.5 nM | 3010 µg/mL (≈ 8130 µM) | 48.5 µM | > 20 µM | 80 nM |
| Cc1[nH]c(/C=C2\C(=O)Nc3ccc(F)cc32)c(C)c1C(=O)NCC1CCN(C)CC1 | 200 nM | > 250 µg/mL | 3 nM | > 250 µg/mL | 38 µM |  | 25 nM |
| Cc1[nH]c(/C=C2\C(=O)Nc3ccc(F)cc32)c(C)c1C(=O)NCc1ccncc1 | 3100 nM |  | 1 nM | 486 µg/mL (≈ 1240 µM) | > 50 µM | > 20 µM | < 160 nM |
| Cc1[nH]c(/C=C2\C(=O)Nc3ccc(F)cc32)c(C)c1C(=O)NCCN1CCCC1 [TOCERANIB] | 3900 nM | 9 µg/mL (≈ 22.7 µM) | 1 nM | 3320 µg/mL (≈ 8370 µM) | 49 µM | > 20 µM | 60 nM |

From ChEMBL document CHEMBL1136732, “Discovery of 5-[5-fluoro-2-oxo-1,2- dihydroindol-(3Z)-ylidenemethyl]-2,4- dimethyl-1H-pyrrole-3-carboxylic acid (2-diethylaminoethyl)amide, a novel tyrosine kinase inhibitor targeting vascular endothelial and platelet-derived growth factor receptor tyrosine kinase” (J Med Chem, 2003)
